Test results from paper PMC11864979, “First-in-class ultralong-target-residence-time p38α inhibitors as a mitosis-targeted therapy for colorectal cancer” (Nature Cancer, 2025).
Like-named read-outs stand apart in the source and are kept apart here.

How the values were obtained:
Assay in all cases: selectivity profiling in a panel of 340 wild-type kinases (Reaction Biology Europe)
Type in all cases: binding
340 wild-type kinases [1] = molecular target: T1, 340 wild-type kinases (Homo sapiens, UniProt Q9NZJ5)
T1 construct: purchased Reaction Biology Europe
T1 sequence (Q9NZJ5 30-1116): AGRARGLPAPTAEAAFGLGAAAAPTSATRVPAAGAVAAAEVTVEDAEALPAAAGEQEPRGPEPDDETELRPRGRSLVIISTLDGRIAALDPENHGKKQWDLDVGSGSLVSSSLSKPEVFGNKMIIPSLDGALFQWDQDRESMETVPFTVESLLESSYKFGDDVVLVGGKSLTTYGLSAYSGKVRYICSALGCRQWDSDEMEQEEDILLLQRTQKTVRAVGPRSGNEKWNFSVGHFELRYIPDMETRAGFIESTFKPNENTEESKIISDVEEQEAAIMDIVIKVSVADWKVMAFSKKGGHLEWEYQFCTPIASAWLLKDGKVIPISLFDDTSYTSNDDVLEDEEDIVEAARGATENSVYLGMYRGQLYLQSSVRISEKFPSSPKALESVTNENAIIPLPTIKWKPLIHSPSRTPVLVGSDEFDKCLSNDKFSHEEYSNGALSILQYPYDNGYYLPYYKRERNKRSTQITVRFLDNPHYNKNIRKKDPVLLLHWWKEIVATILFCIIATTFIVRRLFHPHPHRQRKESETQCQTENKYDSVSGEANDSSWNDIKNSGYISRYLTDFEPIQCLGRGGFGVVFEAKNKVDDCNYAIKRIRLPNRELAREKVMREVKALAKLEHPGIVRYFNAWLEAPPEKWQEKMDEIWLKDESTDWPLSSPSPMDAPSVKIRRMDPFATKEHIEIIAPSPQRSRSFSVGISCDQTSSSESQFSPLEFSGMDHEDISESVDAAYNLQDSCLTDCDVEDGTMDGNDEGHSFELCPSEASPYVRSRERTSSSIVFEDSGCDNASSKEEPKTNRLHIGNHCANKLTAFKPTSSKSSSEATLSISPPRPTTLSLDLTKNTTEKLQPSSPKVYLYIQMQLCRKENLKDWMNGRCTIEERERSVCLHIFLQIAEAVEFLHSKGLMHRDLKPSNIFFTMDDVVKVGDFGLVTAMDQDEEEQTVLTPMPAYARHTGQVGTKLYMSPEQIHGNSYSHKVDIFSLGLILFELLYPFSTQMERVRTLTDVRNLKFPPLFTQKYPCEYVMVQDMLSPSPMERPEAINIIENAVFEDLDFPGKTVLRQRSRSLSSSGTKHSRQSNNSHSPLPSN

340 wild-type kinases [2] = molecular target: T2, 340 wild-type kinases (Homo sapiens, UniProt P49840)
T2 construct: purchased Reaction Biology Europe

340 wild-type kinases [3] = molecular target: T3, 340 wild-type kinases (Homo sapiens, UniProt O14920)
T3 construct: purchased Reaction Biology Europe
T3 sequence (O14920 1-756): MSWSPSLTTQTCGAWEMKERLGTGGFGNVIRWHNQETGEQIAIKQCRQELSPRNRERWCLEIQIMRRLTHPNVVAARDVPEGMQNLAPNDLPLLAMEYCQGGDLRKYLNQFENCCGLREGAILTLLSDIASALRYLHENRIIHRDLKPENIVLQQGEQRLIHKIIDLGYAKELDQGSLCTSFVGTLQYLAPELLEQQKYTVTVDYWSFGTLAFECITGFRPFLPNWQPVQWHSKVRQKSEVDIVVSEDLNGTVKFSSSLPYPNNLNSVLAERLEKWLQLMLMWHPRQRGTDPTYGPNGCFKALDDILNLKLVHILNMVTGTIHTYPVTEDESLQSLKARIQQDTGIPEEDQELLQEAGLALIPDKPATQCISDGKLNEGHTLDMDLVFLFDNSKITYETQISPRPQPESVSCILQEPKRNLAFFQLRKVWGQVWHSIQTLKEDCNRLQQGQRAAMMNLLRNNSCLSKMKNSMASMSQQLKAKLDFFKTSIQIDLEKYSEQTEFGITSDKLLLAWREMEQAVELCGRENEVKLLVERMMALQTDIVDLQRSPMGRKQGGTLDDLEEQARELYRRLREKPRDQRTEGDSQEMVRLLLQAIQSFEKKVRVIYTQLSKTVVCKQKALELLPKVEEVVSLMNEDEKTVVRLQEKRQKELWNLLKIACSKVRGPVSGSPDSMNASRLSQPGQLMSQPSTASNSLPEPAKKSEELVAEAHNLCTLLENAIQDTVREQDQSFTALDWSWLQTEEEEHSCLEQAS

340 wild-type kinases [4] = molecular target: T4, 340 wild-type kinases (Homo sapiens, UniProt O00418)
T4 construct: purchased Reaction Biology Europe
T4 sequence (O00418 1-725): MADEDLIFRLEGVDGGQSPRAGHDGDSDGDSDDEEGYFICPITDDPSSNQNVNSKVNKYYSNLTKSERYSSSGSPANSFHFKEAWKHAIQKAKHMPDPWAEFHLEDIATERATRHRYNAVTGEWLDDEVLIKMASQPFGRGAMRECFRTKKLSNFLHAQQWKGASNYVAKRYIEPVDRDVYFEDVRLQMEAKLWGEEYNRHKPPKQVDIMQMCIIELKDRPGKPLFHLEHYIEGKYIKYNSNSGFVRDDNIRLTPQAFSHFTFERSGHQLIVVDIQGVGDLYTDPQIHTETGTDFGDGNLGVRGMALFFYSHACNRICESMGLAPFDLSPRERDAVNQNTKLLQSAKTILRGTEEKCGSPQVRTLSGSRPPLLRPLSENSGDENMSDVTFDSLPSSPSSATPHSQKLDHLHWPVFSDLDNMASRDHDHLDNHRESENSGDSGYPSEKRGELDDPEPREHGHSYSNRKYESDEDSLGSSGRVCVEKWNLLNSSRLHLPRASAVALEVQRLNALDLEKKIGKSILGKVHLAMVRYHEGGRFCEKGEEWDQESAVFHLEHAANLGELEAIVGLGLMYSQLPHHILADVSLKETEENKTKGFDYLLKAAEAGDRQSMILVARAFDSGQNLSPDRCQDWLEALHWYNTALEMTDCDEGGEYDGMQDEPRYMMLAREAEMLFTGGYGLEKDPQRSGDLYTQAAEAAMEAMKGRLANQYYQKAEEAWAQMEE

340 wild-type kinases [5] = molecular target: T5, 340 wild-type kinases (Homo sapiens, UniProt Q9P289)
T5 construct: purchased Reaction Biology Europe
T5 sequence (Q9P289 whole entry): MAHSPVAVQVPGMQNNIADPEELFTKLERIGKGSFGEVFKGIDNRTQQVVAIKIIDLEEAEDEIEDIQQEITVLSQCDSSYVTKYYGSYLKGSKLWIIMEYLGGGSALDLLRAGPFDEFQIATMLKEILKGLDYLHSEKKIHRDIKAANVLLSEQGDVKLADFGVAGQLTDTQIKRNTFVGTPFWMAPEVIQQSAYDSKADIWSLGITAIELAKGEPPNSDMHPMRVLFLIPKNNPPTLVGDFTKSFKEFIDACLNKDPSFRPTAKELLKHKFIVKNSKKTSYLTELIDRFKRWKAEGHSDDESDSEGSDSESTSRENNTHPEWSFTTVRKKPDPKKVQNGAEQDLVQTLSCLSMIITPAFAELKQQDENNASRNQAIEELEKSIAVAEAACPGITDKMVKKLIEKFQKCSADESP

T2 sequence (P49840 whole entry): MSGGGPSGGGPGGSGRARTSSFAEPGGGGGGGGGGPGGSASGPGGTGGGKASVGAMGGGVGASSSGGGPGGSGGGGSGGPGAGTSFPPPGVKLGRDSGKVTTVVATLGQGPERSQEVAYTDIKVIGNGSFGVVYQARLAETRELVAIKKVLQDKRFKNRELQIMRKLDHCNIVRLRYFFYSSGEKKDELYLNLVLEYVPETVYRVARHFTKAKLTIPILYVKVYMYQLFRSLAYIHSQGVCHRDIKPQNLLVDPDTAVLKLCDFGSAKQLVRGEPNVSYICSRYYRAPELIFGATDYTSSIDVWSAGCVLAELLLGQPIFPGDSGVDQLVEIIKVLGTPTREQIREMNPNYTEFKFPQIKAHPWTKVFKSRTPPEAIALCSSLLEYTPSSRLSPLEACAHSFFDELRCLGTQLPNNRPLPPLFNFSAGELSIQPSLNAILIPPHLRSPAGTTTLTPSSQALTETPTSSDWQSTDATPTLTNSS

CNC(=O)c1ccc2c(c1)C(=O)c1ccc(Nc3ccc(F)c(NC(=O)C4CC4)c3)cc1CC2 [Compound 2015]
remaining activity at 1 µM (340 wild-type kinases [1]; 1 µM 2015, read-out: EIF2AK3 residual activity): 86.3% | remaining activity at 0.2 µM (340 wild-type kinases [1]; EIF2AK3, 0.2 µM, read-out: residual activity): 93.3% | remaining activity at 1 µM (340 wild-type kinases [1]; EIF2AK3, 1 µM, read-out: residual activity): 86.3% | remaining activity at 0.2 µM (340 wild-type kinases [2]; 0.2 µM 2015, read-out: GSK3alpha residual activity): 110% | remaining activity at 1 µM (340 wild-type kinases [2]; 1 µM 2015, read-out: GSK3alpha residual activity): 82.6% | remaining activity at 0.2 µM (340 wild-type kinases [2]; GSK3alpha, 0.2 µM, read-out: residual activity): 110% | remaining activity at 1 µM (340 wild-type kinases [2]; GSK3alpha, 1 µM, read-out: residual activity): 82.6% | remaining activity at 0.2 µM (340 wild-type kinases [3]; 0.2 µM 2015, read-out: IKKbeta residual activity): 108% | remaining activity at 1 µM (340 wild-type kinases [3]; 1 µM 2015, read-out: IKKbeta residual activity): 99% | remaining activity at 0.2 µM (340 wild-type kinases [3]; IKKbeta, 0.2 µM, read-out: residual activity): 108% | remaining activity at 1 µM (340 wild-type kinases [3]; IKKbeta, 1 µM, read-out: residual activity): 99% | remaining activity at 0.2 µM (340 wild-type kinases [4]; 0.2 µM 2015, read-out: EEF2K residual activity): 106% | remaining activity at 1 µM (340 wild-type kinases [4]; 1 µM 2015, read-out: EEF2K residual activity): 98.4% | remaining activity at 0.2 µM (340 wild-type kinases [4]; EEF2K, 0.2 µM, read-out: residual activity): 106% | remaining activity at 1 µM (340 wild-type kinases [4]; EEF2K, 1 µM, read-out: residual activity): 98.4% | remaining activity at 0.2 µM (340 wild-type kinases [5]; 0.2 µM 2015, read-out: MST4 residual activity): 78.4% | remaining activity at 1 µM (340 wild-type kinases [5]; 1 µM 2015, read-out: MST4 residual activity): 69.9% | remaining activity at 0.2 µM (340 wild-type kinases [5]; MST4, 0.2 µM, read-out: residual activity): 78.3% | remaining activity at 1 µM (340 wild-type kinases [5]; MST4, 1 µM, read-out: residual activity): 69.9%
